Source: patent US20030044872A1, “Means of stabilizing compositions and reagents” (priority 1999, published 2003)
Where two headings read alike, the source gives them in different places.

Experiments:
factor XIII = assay: Inhibiting for factor XIII in absorbed plasma/calcium lactate buffer mixture (Example 4); format: biochemical, bovine; note: key: +: Yes; −: No
Procedure: (§1) To 100 ml of bovine plasma, barium sulfate in 20 w/v % was added. The mixture was mixed for 30 minutes at room temperature, and stirred slowly. Subsequently, the mixture was centrifuged at 5,000×g to remove the barium sulfate precipitate, and absorbed plasma was prepared by adding in the supernatant, and was mixed with 1 ml of N-ethylmaleimide, as inhibitor for Factor XIII. In other words, the composition prepared, contained at least Factor V and fibrinogen. Beside these, the absorbed plasma, without containing 1 mL of N-ethylmaleimide, was prepared and used, as a control.
(§2) Separately, one volume of the absorbed plasma and one volume of 20 mM Hepes-Tris buffer solution (pH 7.0), in which 10 mM of calcium lactate was added, were mixed together to prepare the solution. To the solution, each of substance, stated in Table 1 as below, was added so that mixture might show such a concentration as mentioned in the Table 1. With these mixtures, the inhibiting rate for factor XIII, and a producing rate of the insoluble matter after storage for 24 hours at 10° C. were measured.

[1] = Insoluble precipitation after storage of absorbed plasma mixture with various substances (Example 4); format: physicochemical, bovine; settings: storage 24 hours at 10° C. Note: key: +: Yes; −: No.
Procedure: as §1, §2

[2] = Stabilizing effect of 1:1 mixtures of NEM with other inhibitors, procedures of Examples 5 to 8 (Example 9); format: physicochemical, bovine
From the text: The procedures stated in the Examples 5 to 8 were repeatedly carried out using the mixtures of NEM with monochloroamide, acrylamide, glycinamide, and dithioprydine, as an inhibiting agent, in an amount of 1:1, as other representative examples.

[3] = Insoluble precipitation in three adsorbed plasmas with N-ethylmaleimide (Example 6); format: physicochemical, bovine; parameters: key: +: Insoluble precipitation; −: No insoluble precipitation; settings: NEM (+)
Procedure: To 100 ml of bovine plasma, barium sulfate in 20 w/v % was added. The mixture was mixed for 30 minutes at room temperature, and stirred slowly. Subsequently, the mixture was centrifuged at 5,000×g to remove the barium sulfate precipitate, and absorbed plasma was prepared by adding in the supernatant, and was mixed with 1 ml of N-ethylmaleimide, as inhibitor for Factor XIII. In other words, the composition prepared, contained at least Factor V and fibrinogen. Beside these, the absorbed plasma, without containing 1 mL of N-ethylmaleimide, was prepared and used, as a control. To study the effect of the present invention, one volume of three types absorbed plasma, prepared in the Example 2 and one volume of 20 mM Hepes-Trisbuffersolution were mixed together, and visually detected both after storing 24 hours at 10° C., and right after freeze-thawed at […]. As clearly seen in the Table 3, none of the adsorbed plasma mixed with N-ethylmaleimide observed the insoluble precipitation, neither in storing at 10° C. or after freeze-thawed treatment. […] Thus, it has become clear that the insoluble precipitation can be inhibited by adding N-ethylmaleimide.

[4] = Influence of N-ethylmaleimide concentration on insoluble precipitation, visually detected (Example 5); format: physicochemical, bovine; parameters: key: +: Insoluble Precipitation; ±: Slightly insoluble precipitation; −: No insoluble precipitate
Procedure: To 100 ml of bovine plasma, barium sulfate in 20 w/v % was added. The mixture was mixed for 30 minutes at room temperature, and stirred slowly. Subsequently, the mixture was centrifuged at 5,000×g to remove the barium sulfate precipitate, and absorbed plasma was prepared by adding in the supernatant, and was mixed with 1 ml of N-ethylmaleimide, as inhibitor for Factor XIII. In other words, the composition prepared, contained at least Factor V and fibrinogen. Beside these, the absorbed plasma, without containing 1 mL of N-ethylmaleimide, was prepared and used, as a control. The absorbed plasma was prepared in the same manner as stated in the Example 2, except that a concentration of N-ethylmaleimide was varied. Separately, one volume of the absorbed plasma and one volume of 20 mM Hepes-Tris buffer solution (pH 7.0), in which 10 mM of calcium lactate was added, were mixed together to prepare the solution, for which a producing rate of the insoluble matter was visually detected both after storing 24 hours at 10° C., and right after freeze-thawed at −20° C. As clearly seen in the Table 2, it has been cleared that N-ethylmaleimide may inhibit insoluble precipitation even with adding 1 mM concentration, however, more preferably 1 mM to 10 mM.

[5] = system: commercially available control plasma; assay: Reagent performance: coagulation activity / clotting time of control plasma on blood coagulation analyzer Coagre (Example 8); format: biochemical; settings: reagent with NEM added
Procedure: In order to confirm the performance of each reagent, prepared in the Example 8, the performance was evaluated using Blood coagulation analyzer, Coagre (manufactured by Shimazu, Co., Japan) by measuring clotting time with commercially available control plasma. The performance and stability of the reagent evaluated by using the reagents, prepared and preserved for several days at 10° C., to obtain plasma coagulation activity of control plasma. As clearly seen in the Table 5, clotting time was not varied even adding NEM.

[6] = substance 1 mM in absorbed plasma + Hepes-Tris/calcium lactate
[7] = mixture of NEM with the inhibitor 1:1, procedures of Examples 5 to 8

For “Bovine serum albumin: Bovine serum albumin, comparison substance added at 1%”, the “Inhibiting for factor XIII” value (factor XIII; substance 1% in absorbed plasma + Hepes-Tris/calcium lactate) was “−” and the Precipitation ([1]; substance 1%) was “+”.
With `[Cl-].[Na+]` [NaCl] the “Inhibiting for factor XIII” value (factor XIII; substance 10 mM in absorbed plasma + Hepes-Tris/calcium lactate) was “−”.
For `NCC(N)=O` [glycinamide], the “stabilizing effect compared with NEM” value [2] was “equal or slightly inferior to NEM”.
For `OC[C@H]1O[C@@](CO)(O[C@H]2O[C@H](CO)[C@@H](O)[C@H](O)[C@H]2O)[C@@H](O)[C@@H]1O` [Sucrose], the “Inhibiting for factor XIII” value (factor XIII; substance 5% in absorbed plasma + Hepes-Tris/calcium lactate) was “−” and the Precipitation ([1]; substance 5%) was “+”.
With `O=C(O)CI` [Monoiodo acetic acid] the “Inhibiting for factor XIII” value (factor XIII; [6]) was “+” and the Precipitation ([1]; substance 1 mM) was “−”.
For `CN(C)c1c([N+](=O)[O-])cc(N2C(=O)C=CC2=O)cc1[N+](=O)[O-]` [N-(4-dimethylamino-3,5-dinitrophenyl) maleimide], the “Inhibiting for factor XIII” value (factor XIII; [6]) was “+” and the Precipitation ([1]; substance 1 mM) was “−”.
In the case of monochloroamide, the “stabilizing effect compared with NEM” value [2, 7] is reported as “equal or slightly inferior to NEM”.
For dithioprydine, the “stabilizing effect compared with NEM” value [2] was “equal or slightly inferior to NEM”.
With `C=CC(N)=O` [acrylamide] the “stabilizing effect compared with NEM” value [2, 7] was “equal or slightly inferior to NEM”.
For `CCN1C(=O)C=CC1=O` [N-ethylmaleimide], the “Inhibiting for factor XIII” value (factor XIII; [6]) was “+”, the Insoluble precipitation ([3]; Adsorbed plasma 1, Storage after freeze-thawing at −20° C.) was “−” and the Insoluble precipitation ([3]; Adsorbed plasma 1, Storage at 10° C.) was “−”. For the same compound, the Insoluble precipitation ([3]; Adsorbed plasma 2, Storage after freeze-thawing at −20° C.) was “−”, the Insoluble precipitation ([3]; Adsorbed plasma 2, Storage at 10° C.) was “−” and the Insoluble precipitation ([3]; Adsorbed plasma 3, Storage after freeze-thawing at −20° C.) was “−”. The Insoluble precipitation ([3]; Adsorbed plasma 3, Storage at 10° C.) was “−”, the Insoluble precipitation ([4]; 0.1 mM, Bovine plasma 1, 24 hours at 10° C.) was “±” and the Insoluble precipitation ([4]; 0.1 mM, Bovine plasma 1, freeze-thawed at −20° C.) was “+”. The Insoluble precipitation ([4]; 0.1 mM, Bovine plasma 2, 24 hours at 10° C.) was “±”, the Insoluble precipitation ([4]; 0.1 mM, Bovine plasma 2, freeze-thawed at −20° C.) was “+” and the Insoluble precipitation ([4]; 1 mM, Bovine plasma 1, 24 hours at 10° C.) was “−”. For the same compound, the Insoluble precipitation ([4]; 1 mM, Bovine plasma 1, freeze-thawed at −20° C.) was “−”, the Insoluble precipitation ([4]; 1 mM, Bovine plasma 2, 24 hours at 10° C.) was “−” and the Insoluble precipitation ([4]; 1 mM, Bovine plasma 2, freeze-thawed at −20° C.) was “−”. The Insoluble precipitation ([4]; 2 mM, Bovine plasma 1, 24 hours at 10° C.) was “−”, the Insoluble precipitation ([4]; 2 mM, Bovine plasma 1, freeze-thawed at −20° C.) was “−” and the Insoluble precipitation ([4]; 2 mM, Bovine plasma 2, 24 hours at 10° C.) was “−”. The Insoluble precipitation ([4]; 2 mM, Bovine plasma 2, freeze-thawed at −20° C.) was “−”, the Insoluble precipitation ([4]; 5 mM, Bovine plasma 1, 24 hours at 10° C.) was “−” and the Insoluble precipitation ([4]; 5 mM, Bovine plasma 1, freeze-thawed at −20° C.) was “−”. The Insoluble precipitation ([4]; 5 mM, Bovine plasma 2, 24 hours at 10° C.) was “−”, the Insoluble precipitation ([4]; 5 mM, Bovine plasma 2, freeze-thawed at −20° C.) was “−” and the Insoluble precipitation ([4]; 10 mM, Bovine plasma 1, 24 hours at 10° C.) was “−”. The Insoluble precipitation ([4]; 10 mM, Bovine plasma 1, freeze-thawed at −20° C.) was “−”, the Insoluble precipitation ([4]; 10 mM, Bovine plasma 2, 24 hours at 10° C.) was “−” and the Insoluble precipitation ([4]; 10 mM, Bovine plasma 2, freeze-thawed at −20° C.) was “−”. For the same compound, the clotting time [5] was “not varied” and the Precipitation ([1]; substance 1 mM) was “−”.
